Legend:
[1] = Solubility/dispersion of surfactant in 0.9% saline; format: physicochemical; details: 5% solution/dispersion in 0.9% saline
Method: (§1) Surfactants were screened initially by preparing 5% solutions/dispersions of the surfactant in 0.9% saline and admixing 1:1 with rat whole blood. Centrifugation (6 minutes) at 2400 rpm afforded packed cells and a supernate. […] The discoloration of the supernate was not quantified colorimetrically.

rat whole blood = test: Hemolysis screening of surfactants; format: cell-based; details: 5% surfactant in 0.9% saline admixed 1:1 with rat whole blood; visually distinct red hue of supernate
Method: Surfactant Examples 1a-1k according to general Structure I above, and 2a of Structure II above, were prepared following the above procedures.
as §1

Blood hematology = format: in vivo, rats; details: Table VIII, accredited outside laboratories
Text: The effects on the liver and lung were not as pronounced in Table VI as in Table V. However, with respect to Table VII, it is believed that the smaller values obtained for the liver and spleen are also real.

[2] = Organ distribution 14 days after infusion (Table V); format: in vivo, rats; details: for Kidney / Liver / Lung / Spleen / Survival / Hct: 14 days after infusion of 40 cc/Kg; for Hct: hematocrit
Method: The impact of the emulsions of Table IV on organ distribution of PFC was then determined by sacrificing the test animals 14 days after infusion.

[3] = Organ distribution, additional separate study (Table VI); format: in vivo, rats
[4] = Organ distribution, additional separate study (Table VII); format: in vivo, rats
[5] = Perfluorochemical circulatory blood residence time (fluorocrit); format: in vivo, rats; details: perfluorochemical remaining at 48 hours
Method: The emulsions of Tables II and III were studied in a randomized, ten animal per emulsion experiment in which each animal was infused with 20 cc/Kg of emulsion and sacrificed at 48 hours to determine the circulatory perfluorochemical or perfluorocarbon content called "fluorocrit" and abbreviated "Fct". The Fct represents that percentage of the blood that is perfluorocarbon in v/v %.
After 48 hrs., the animals were anesthetized, the chest cavity was opened, and a blood sample (1-2ml) was withdrawn from the still beating heart. Three to 4 drops of the sample were added to each of three previously tared 4 ml vials containing 10%KOH/EtOH (1.0 ml). The vials were weighed to determine the amount of blood added, then reweighed after an internal standard mixture of 1% octane in CFCl3 (1.5-2.0ml) was added. H2 O was added to the vial until full, then the vial was placed on a rotary shaker at 240 rpm for 20 minutes. The lower layer was withdrawn, and passed through a glass wool plugged pasteur pipette containing silica gel (0.3-0.4g). […] The program parameters specified a hold period at 40° C. for 4 minutes, followed by a 10° C./minute temperature rise until 140° was attained.

Sprague Dawley rats = test: Preliminary acute toxicity screen; format: in vivo; details: 5% sonicated dispersion in 0.9% saline, two Sprague Dawley rats, 14 days
[6] = Emulsion mean particle size and stability after 4 days in serum albumin/Lactated Ringer's at 37° C.; format: physicochemical
Text: The surfactants of Table I were used to make 40 volume % (v/v) perfluorochemical emulsions. In the above described European Pat. Appln. […] Therefore, those perfluorochemical emulsions were used as a control for comparison with the perfluorochemical emulsions of this invention.
For comparison with the data of Table II, the study was repeated with a constant loading of 2 w/v % surfactant, and 2 w/v % safflower oil adjuvant for the control and surfactants of this invention.

[7] = K. Yokoyama et al; cited from earlier work

In the case of `CCCCCCCCCCCCCCCCCCOCC(COP(=O)([O-])OCC[N+](C)(C)C)OCCCCCCCCCCCCCCCCCC` (stereo not shown) [Cpd 1d, 1,2-di-octadecylglycero-3-phosphoryl choline], the “Solubility (entry in survival column)” value [1] is reported as “insoluble cpd” and the Hemolytic (rat whole blood) is reported as “No”.
Work on `CCCCCCCCCCCCCCCCCCOCC(COP(=O)([O-])OCC[N+](C)(C)C)OCCCCCCCCCCCCCCCC` (stereo not shown) [Cpd 1j, 1-octadecyl-2-hexadecylglycero-3-phosphoryl choline] yielded a Platelets (Blood hematology) of 1024222, an RBC (Blood hematology) of 5.42 and a Reticulocytes (Blood hematology) of 313281. For the same compound, the Hemoglobin (Blood hematology; in g/dL (unit assumed)) was 11.04, the Kidney [2] was 0.89 g/100 g and the Liver [2] was 6.64 g/100 g. The Lung [2] was 0.57 g/100 g, the Spleen [2] was 1.66 g/100 g and the Survival [2] was 9/10. The Hct [2] was 44.4 v/v %, the “drop in hematocrit after infusion (in words)” value ([2]; vs control) was “so striking” and the Kidney [3] was 0.97 g/100 g. The Liver [3] was 7.44 g/100 g, the Lung [3] was 0.98 g/100 g and the Spleen [3] was 1.70 g/100 g. For the same compound, the Survival [3] was 10/10, the Hct ([3]; hematocrit) was 36.1 v/v % and the Kidney [4] was 0.901 g/100 g. For the same compound, the Liver [4] was 7.39 g/100 g, the Lung [4] was 0.828 g/100 g and the Spleen [4] was 1.46 g/100 g. For the same compound, the Survival [4] was 10/10, the Hct ([4]; hematocrit) was 37.7 v/v % and the “circulatory blood residence / stability in the circulatory blood system (in words)” value [5] was “increased stabilities in the circulatory blood system”.
In the case of `CCCCCCCCCCCCCCCCOC(COCCCCCCCCCCCCCC)COP(=O)([O-])OCC[N+](C)(C)C` (stereo not shown) [Cpd 1k, 1-tetradecyl-2-hexadecylglycero-3-phosphoryl choline], the Kidney [2] is reported as 1.22 g/100 g, the Liver [2] is reported as 7.76 g/100 g and the Lung [2] is reported as 0.64 g/100 g. For the same compound, the Spleen [2] was 2.09 g/100 g, the Survival [2] was 9/10 and the Hct [2] was 36.5 v/v %.
Work on `CCCCCCCC/C=C\CCCCCCCCOCC(COP(=O)([O-])OCC[N+](C)(C)C)OCCCCCCCC/C=C\CCCCCCCC` (stereo not shown) [Cpd 1i, 1,2-Dioleylglycerophosphoryl choline] yielded a Kidney [2] of 0.96 g/100 g, a Liver [2] of 7.47 g/100 g and a Lung [2] of 0.64 g/100 g. The Spleen [2] was 2.56 g/100 g, the Survival [2] was 8/10 and the Hct [2] was 34.7 v/v %. The “Survival at 40 cc/Kg of 5% solution” value (Sprague Dawley rats) was 2/2, the “Mean Particle Size” value ([6]; Table II, 1.8 w/v % Cpd., 2.0 w/v % oil, 40 v/v % PFC emulsion, sterilized 15 min 121° C.) was 304 nM and the “4 days Serum” value ([6]; Table II, 1.8 w/v % Cpd., 2.0 w/v % oil, particle size after 4 days at 37° C. in serum albumin/Lactated Ringer's) was 258 nM. The “Mean Particle Size” value ([6]; Table III, 2 w/v % surfactant, 2 w/v % safflower oil) was 323 nM, the “4 days Serum” value ([6]; Table III, 2 w/v % surfactant, 2 w/v % safflower oil, 4 days at 37° C. in serum albumin/Lactated Ringer's) was 301 nM and the Hemolytic (rat whole blood) was “No”.
For `CCCCCCCCCCCCCCCCCCOC(COCCCCCCCCCCCCCCCC)COP(=O)([O-])OCC[N+](C)(C)C` (stereo not shown) [Cpd 1h, 1-hexadecyl-2-octadecylglycero-3-phosphoryl choline], the “Survival at 40 cc/Kg of 5% solution” value (Sprague Dawley rats) was 0/2 and the Hemolytic (rat whole blood) was “No”.
For `CCCCCCCCCCCCCCCCCCOCC(COP(=O)([O-])OCC[N+](C)(C)C)OCCCCCCCCCCCCCC` (stereo not shown) [Cpd 1f, 1-octadecyl-2-tetradecylglycero-3-phosphoryl choline], the “Survival at 40 cc/Kg of 5% solution” value (Sprague Dawley rats) was 2/2, the “circulatory blood residence / stability in the circulatory blood system (in words)” value [5] was “increased stabilities in the circulatory blood system” and the Hemolytic (rat whole blood) was “No”.
With `CCCCCCCCOCC(COP(=O)([O-])OCC[N+](C)(C)C)OCCCCCCCC` (stereo not shown) [Cpd 1a, 1,2-dioctylglycero-3-phosphoryl choline] the Hemolytic (rat whole blood) was “hemolytic and Yes”.
With `CCCCCCCCCCCCCCOCC(COP(=O)([O-])OCC[N+](C)(C)C)OCCCCCCCCCCCCCC` (stereo not shown) [Cpd 1b, 1,2-ditetradecylglycero-3-phosphoryl choline] the Hemolytic (rat whole blood) was “hemolytic and Yes”.
In the case of `CCCCCCCCCCCCCCCCOCC(COP(=O)([O-])OCC[N+](C)(C)C)OCCCCCCCCCCCCCC` (stereo not shown) [Cpd 1e, 1-hexadecyl-2-tetradecylglycero-3-phosphoryl choline], the Kidney [2] is reported as 1.06 g/100 g, the Liver [2] is reported as 7.97 g/100 g and the Lung [2] is reported as 0.57 g/100 g. The Spleen [2] was 1.55 g/100 g, the Survival [2] was 9/10 and the Hct [2] was 35.8 v/v %. The “Survival at 40 cc/Kg of 5% solution” value (Sprague Dawley rats) was 0/2 and the Hemolytic (rat whole blood) was “No”.
In the case of `FC(F)(F)C(F)(F)C(F)(F)N(C(F)(F)C(F)(F)C(F)(F)F)C(F)(F)C(F)(F)C(F)(F)F` [perfluorotripropylamine], the “half life in the liver and other body tissues (in words)” value [7] is listed as “longer than desirable”.
For `CCCCCCCCCCCCCCCCOCC(COP(=O)([O-])OCC[N+](C)(C)C)OCCCCCCCCCCCCCCCC` (stereo not shown) [Cpd 1c, 1,2-dihexadecylglycero-3-phosphoryl choline], the “Survival at 40 cc/Kg of 5% solution” value (Sprague Dawley rats) was 2/2 and the Hemolytic (rat whole blood) was “No”.
With `CCCCCCCCCCCCCCCCCCOC(COCCCCCCCCCCCCCC)COP(=O)([O-])OCC[N+](C)(C)C` (stereo not shown) [Cpd 1g, 1-tetradecyl-2-octadecylglycero-3-phosphoryl choline] the Kidney [2] was 0.94 g/100 g, the Liver [2] was 7.52 g/100 g and the Lung [2] was 0.55 g/100 g. The Spleen [2] was 1.49 g/100 g, the Survival [2] was 6/10 and the Hct [2] was 39.0 v/v %. For the same compound, the “Survival at 40 cc/Kg of 5% solution” value (Sprague Dawley rats) was 0/2 and the Hemolytic (rat whole blood) was “No”.

— patent US5439944A, “Red blood cell substitute emulsions containing alkyl- or alkylglyucerophosphoryl choline surfactants and methods of use” (priority 1993, dated 1995)
